Laboratory results reported in patent US12622916B2, “Use of H3K9me3 modulation for enhancing cognitive function” (THE REGENTS OF THE UNIVERSITY OF CALIFORNIA, priority 2015, dated 2026).

Assays:
[1] = test system: 14 DIV hippocampal neurons; experiment: Oxygen-glucose deprivation (OGD)-induced cytotoxicity, LDH assay; type: cell-based; conditions: OGD 2 hours, LDH 48 hours after OGD
Method: OGD in 14 DIV hippocampal neurons was induced by an approach similar to that described by Newcomb-Fernandez et al (2001). Normal media was replaced with PBS and culture plates were placed in an airtight chamber. The chamber was flushed with N2 and CO2 for 3 minutes, sealed, and placed in a 37° C. incubator for 2 hours. PBS was replaced with DMEM (serum-free) and cultures were returned to a normoxic environment. Culture medium was collected 48 hours after the cultures had returned to a normal environment. The cytotoxicity was measured by LDH assay (Thermo-Fisher). To calculate % Cytotoxicity, subtract the LDH activity of the Spontaneous LDH, release Control (water-treated) from the chemical-treated sample LDH activity, divide by the total LDH activity [(Maximum LDH Release Control activity)—(Spontaneous LDH Release Control activity)], and multiply by 100:
Initially we tested the effect of ETP69 on oxygen-glucose deprivation (OGD)-induced cytotoxicity. Mature hippocampal neurons (14 DIV) were treated with OGD for 2 hours in the presence or absence of ETP69. Cytotoxicity was measured by LDH assay 48 hours after OGD. […] FIG. 13 is a graphical illustration of the effect of ETP69 on neuronal survival after oxygen-glucose deprivation (OGD). 14 DIV hippocampal neurons were treated with OGD for 2 hours in the presence or absence of ETP. Cytotoxicity was measured by LDH assay 48 hours after OGD. […]

[2] = test system: H3K9me3; experiment: Histone H3K9 trimethylation level in brain tissue extracts of aged mice; type: in vivo
[3] = test system: panel of 17 human histone methytransferases; experiment: Selectivity against a panel of 17 human histone methyltransferases; type: biochemical; conditions: versus chaetocin A
Source text: In accordance with one or more embodiments of the present invention, the role of H3K9me3 in learning and memory in an animal model of aging using a newly developed analog of the epidithiodiketopiperazine alkaloid chaetocin A called ETP69, illustrated in FIG. 1, is studied.

[4] = test system: hippocampal synaptosomes; experiment: Flow synaptometry of hippocampal synaptosomes of aged mice; type: in vivo; conditions: 10 mg/kg i.p.
Method: Spine counts: In another series of experiments 10 aged mice (20-22 months) were injected with ETP69 (10 mg/kg; i.p) or vehicle (i.p) and 24 hours later the animals were euthanized and the brains were separated into two hemispheres. Right hemisphere was used for Golgi staining and the left was processed for flow synaptometry. Staining was conducted according to manufacturer's information (Golgi-Cox, Bioenna).
Flow Synaptometry: Fresh synaptosome P2 fractions were obtained from whole mouse hippocampus using our long-standing protocol. Briefly, the fractions were obtained from the hippocampus by homogenizing tissue (1:10 w/v) in ice-cold sucrose 320 mM. All the steps were carried out at 4° C.; sucrose buffer, grinder, pestle and microfuge tubes were all pre-cooled on ice. Hippocampi were rapidly dissected from a single mouse and homogenized in 320 mM sucrose (1.5 ml) containing HEPES [10 mM] and protease/phosphatase inhibitors cocktail, pH 7.4. Homogenization consisted of 6-8 manual strokes in a glass-Teflon grinder, clearance (between plunger and glass): 0.15-0.25 mm. Plunger was gently rotated during strokes while the grinder was kept on ice. The homogenate was centrifuged at 1200 g for 10 min. Supernatant (S1, containing mitochondria and synaptosomes) was transferred into two clean microfuge tubes and centrifuged at 12,000 g for 20 min. Supernatants (S2) were carefully removed using a plastic tip and vacuum. Pellets (P2, corresponding to the crude synaptosome fraction) were resuspended by gently pipetting up and down in 1.5 ml of PBS Protein concentration was determined using the BCA assay using bovine serum albumin (BSA) as standard. Before immunolabeling, all samples were adjusted to the same protein concentration using PBS as diluent. Immunolabeling for flow synaptometry analysis was performed according to a method for staining of extracellular/intracellular antigens using 200 ul of synaptosomal fractions (50-100 μg protein). Antibodies: GluR1 (extracellular) (Millipore, ABN241, DIL=1:400), p-Akt-ser473 (Cell Signaling, 4060, DIL=1:400), PSD-95 (Millipore, MAB1598, DIL=1:400), anti-rabbit IgG Alexa-488 ad anti-mouse IgG Alexa 647 (Life Science, DIL=1:400). […] Relative size and granularity was determined by forward (FSC) and side scatter (SSC) properties. […] Alexa 488 and Alexa 647 fluorochromes were detected by the FL1 and FL4 detectors, respectively. […] Ten thousand size-gated particles were collected and analyzed for each sample. […]
Next, we studied the influence of ETP69 on synapses using flow synaptometry, an innovative approach to molecularly characterize isolated synaptosomes (presynaptic terminals attached to post-synaptic dendritic spines). […] After drug treatment, hippocampal synaptosome fractions were immunostained and analyzed by flow synaptometry. […]

[5] = test system: BDNF; experiment: ELISA for BDNF protein in hippocampus; type: in vivo; conditions: aged mice; 10 mg/kg i.p. before or right after OLM acquisition; versus controls
Method: Acquisition (pre-training) or Consolidation (post-training): In another test, aimed to determine the efficacy of the compound in pre and post training paradigms, the same group of 22 aged animals were retested on the OLM task 3 weeks after the first test. To determine whether the drug impacted acquisition or consolidation mechanisms, mice were injected with the 10 mg/kg compound (i.p. n=7) or vehicle (n=8). Animals were sacrificed right after retention testing (i.e. 24 hours post injection), and hippocampi were removed, rapidly frozen on dry ice, and stored at −80° C. until processing for trimethylation levels and BDNF assay. FIG. 2 is a graphical representation of the effect of the drug at 10 mg/kg and 20 mg/kg (i.p) administered 30 minutes prior to acquisition phase in the novel place position task in mice. […] Data are mean±SEM; n=7 or 8/group.
ELISA was performed using the BDNF Emax Immunoassay System (G7610, Promega) according to the manufacturer's instructions. Two sets of samples were prepared from the hippocampus of each animal, and all reactions were performed in duplicate.

## CN1C(=O)[C@@]23C[C@](C)(C#N)[C@H](c4ccc5c(c4)OCO5)N2C(=O)[C@]1(C)SS3 (racemic) [ETP69, Rac-(3S,6S,7S,8aS)-6-(benzo[d][1,3]dioxol-5-yl)-2,3,7-trimethyl-1,4-dioxohexahydro-6H-3,8a-epidithiopyrrolo[1,2-a]pyrazine-7-carbonitrile]
[1]; 4 nM
  OGD-induced cytotoxicity (LDH): rescued neurons from OGD-induced cytotoxicity
[1]; 100 nM
  OGD-induced cytotoxicity (LDH): not 100 nM rescued neurons from OGD-induced cytotoxicity
[2]; 10 mg/kg i.p., 24 hours post drug, hippocampal histone extracts
  H3K9me3 levels in hippocampus: decreases in H3K9me3 levels
[2]; ETP69-treated versus untreated, cerebellum
  H3K9me3 levels in cerebellum: no significant difference
[3]
  selectivity against a panel of 17 human histone methytransferases compared with chaetocin A: significantly greater selectivity
[4]; 24 hours
  PSD95 levels per particle (Mean Fluorescence of intensity): No detectable changes
  proportion of size-gated synaptosomes expressing PSD95: increases the proportion of synaptosomes expressing PSD95
[4]; versus vehicle-treated controls
  PSD95-positive events co-expressing surface GluR1: increase
[4]; versus vehicle-treated mice
  proportion of events expressing both p-Akt and PSD-95: increased the proportion of events expressing both p-Akt and PSD-95
[5]
  BDNF protein levels in hippocampus: significantly elevated levels of BDNF
